Assay results from US9763442B2, “In situ generation of peroxycarboxylic acids at alkaline pH, and methods of use thereof” (priority 2010, dated 2017).

How the values were obtained:
[1] = Coupling of precipitated aqueous POOA by surfactants/hydrotropes; type: physicochemical; conditions: 1000 ppm POOA in DI Water
Procedure: A variety of surfactants were analyzed for coupling and/or dispersion stabilizing of a peroxycarboxylic acid composition generated according to the methods of the invention. In particular, a peroxyoctanoic acid (POOA) composition in deionized water produced according to the invention was analyzed for coupling and/or dispersion stabilization using the dispersing agents set forth in Table 14A.
Given the very limited water solubility of POOA in its protonated form, acidification of the alkaline perhydrolysis solutions of the same causes immediate precipitation and rapid phase separation. In this example various surfactants and hydrotropes were evaluated for their ability to couple the POOA. In Table 14A it can be seen that the most efficient agents for coupling an already precipitated solution of POOA were samples I and II.

[2] = Dispersion stability of acidified POOA solutions with dispersing agents; type: physicochemical; conditions: acidified POOA solution, 10,000 ppm H2SO4; oil sheen = fail
Procedure: The SLS, LAS and SOA dispersing agents were then further examined for efficacy in stabilizing and/or dispersing in 1% or lower sulfuric acid solutions. […] Solution 13 was made as 1 through 12 with the addition of 50 mL of 5 grain hard water to the aliquot of alkaline reaction solution followed by swirling with the surface aliquot and then additional 50 mL of 5 grain hard water, followed within about 5 seconds by 50 mL of 5 grain 2% sulfuric acid and swirled. Solution 14 was made by direct addition of 1% sulfuric acid (5 grain) without pre-dilution, but after moments of swirling with SLS aliquot. All concentrations are shown in ppm. […] The appearance of an oil sheen was regarded as a pass or fail.

Compound	Amount of (B) Required for Coupling [1]	oil sheen at 23 h [2]	Amount of (B) Required for Coupling ([1]; listed as LAS)
CCCCCCCCCCCCOS(=O)(=O)[O-].[Na+] [I, Sodium Lauryl Sulfate]	0.64 g/200 g aq POOA	–	–
CCCCCCCCS(=O)(=O)[O-].[Na+] [VII, Sodium octanesulfonate]	6.60 g/200 g aq POOA	–	–
CCCCC(CC)COC(=O)CC(C(=O)OCC(CC)CCCC)S(=O)(=O)[O-].[Na+] (centres unmarked) [X, Sodium dioctyl Sulfosuccinates]	>2.0 g/200 g aq POOA	–	–
Alkyl Polyglycosides [VI]	2.46 g/200 g aq POOA	–	–
Linear Aryl Sulfonate [II]	0.65 g/200 g aq POOA	minimal surface oil	0.64 g/200 g aq POOA
Sodium Lauryl Ether Sulfate [III]	>0.94 g/200 g aq POOA	–	–
